Results on seven compounds are retold here after US5187187A, “Irreversible ligands for nonsteroidal antiinflammatory drug and prostaglandin binding sites” (Trustees of the University of Pennsylvania, priority 1991, dated 1993).

Series [1] deals with T1, 3α-HSD (Rattus norvegicus, UniProt P23457).
T1 construct: The homogeneous 3α-HSD of rat liver cytosol; from tissue; host or cells: rat liver cytosol
T1 sequence (P23457 1-322): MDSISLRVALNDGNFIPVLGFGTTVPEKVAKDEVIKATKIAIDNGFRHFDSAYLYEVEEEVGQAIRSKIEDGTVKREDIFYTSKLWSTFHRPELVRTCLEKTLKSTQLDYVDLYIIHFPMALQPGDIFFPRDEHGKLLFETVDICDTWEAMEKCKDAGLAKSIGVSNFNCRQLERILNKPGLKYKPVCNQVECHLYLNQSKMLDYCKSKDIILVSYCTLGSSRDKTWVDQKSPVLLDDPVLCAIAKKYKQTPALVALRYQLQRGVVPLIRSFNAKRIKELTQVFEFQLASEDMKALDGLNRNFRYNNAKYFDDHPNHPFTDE
The experiment in a line: Competitive inhibition of androsterone oxidation catalyzed by 3α-HSD, initial velocity conditions, method of Dixon. To be noted: inhibition constants under initial velocity conditions, NADH formation at 340 nm, pH 7.0. Type of series: biochemical.
Method: Initial rates were determined spectrophotometrically by measuring the rate of NADH formation at 340 nM over 5 minutes in an assay containing 2.3 mM AND^+ in 0.1 M potassium phosphate buffer pH 7.0, with 4% acetonitrile (v/v) as a cosolvent in a 1 ml system. The assay was started by the addition of enzyme. […] From the slope of this plot, the Ki was determined.

Series [2] addresses T1, 3α-HSD. Briefly: Time and concentration dependent inactivation of 3α-HSD, method of Kitz and Wilson. To be noted: for t1/2 life for the enzyme at saturating inactivator concentrations: Kitz and Wilson analysis; for Return of activity of inactivated enzyme by extensive dialysis: after inactivation; for Loss of 3α-HSD activity (inactivation): incubation of enzyme with inactivator; for KI (inactivation): independent determination from time dependent inactivation, 1/kapp vs 1/[Inhibitor], pH 7.0, read-out: Ki (Kitz and Wilson analysis of inactivation). It counts as biochemical. The method, then: The difference in the Ki 's determined from the two methods can probably be attributed to the difference in the binding order in the enzymatic mechanism.
Inactivation of […] (15 μM) was conducted in incubations (50 μl) of 10 mM potassium phosphate buffer pH 7.0 containing 1 mM EDTA and 4% acetonitrile as a cosolvent. Enzyme activity was followed over time by diluting an aliquot of the incubation mixture in a 1 ml assay containing 2.3 mM […] and 75 μM androsterone in 0.1 M potassium phosphate buffer, pH 7.0 containing 1 mM mercaptoethanol, with 4% acetonitrile as a cosolvent. Initial rates were determined as described in FIG. 1. Because of the 100 fold or greater dilution of the enzyme into the assay, the initial rate measured is an indication of the enzyme activity remaining at that time. Initial rates of inactivation (kapp 's) were determined from semilogarithmic plots of percent enzyme activity remaining versus time. Data was replotted (FIG. 2b) as 1 /kapp vs 1/[Inhibitor] from which kinact (the rate constant for enzyme inactivation) and Ki (the binding constant for compound (VII)) were determined.

For series [3] the following is noted: in vivo; cited from earlier work.

For the compound `COc1ccc2c(c1)c(CC(=O)O)c(C)n2C(=O)c1ccc(Cl)cc1` [Indomethacin (I), indomethacin, reference compound], on 3α-HSD [1], affinity was put at a Ki of 0.835 µM.

With `O=C(CBr)Nc1cccc(Nc2ccccc2C(=O)O)c1` [Compound (VIII), N-(3-bromoacetamidophenyl) anthranilic acid], on 3α-HSD [1], the Ki (usually the equilibrium dissociation constant of an inhibitor or competing ligand from its target) turned out to be 1.5 µM. Besides, at 3α-HSD [2], the “t1/2 life for the enzyme at saturating inactivator concentrations” value (from here on “t1/2 life for the enzyme”) was found to be 7.1 s; the “Return of activity of inactivated enzyme by extensive dialysis” value (shortened to “Return of activity of inactivated enzyme”) is given as “cannot be returned by extensive dialysis”; the “Loss of 3α-HSD activity (inactivation)” value was “time and concentration dependent loss of 3α-HSD activity”; the KI (inactivation) turned out to be 155 µM.

Take `COc1ccc2c(c1)c(CC(=O)O)c(C)n2Cc1ccc(NC(=O)CBr)cc1` [Compound (VI), 1-(4-bromoacetamidobenzyl)-5-methoxy-2-methylindole-3-aceticacid]: the Ki on 3α-HSD [1] was 15 µM. In addition, on 3α-HSD [2], the “t1/2 life for the enzyme” value turned out to be 40.2 s; the “Return of activity of inactivated enzyme” value is recorded as “cannot be returned by extensive dialysis”; the “Loss of 3α-HSD activity (inactivation)” value is “time and concentration dependent loss of 3α-HSD activity”; the KI (inactivation) was 233 µM.

As for `CC(=O)Oc1ccccc1C(=O)O` [aspirin, acetyl salicylate], the “plasma t1/2 life” value in series [3] is 900 s.

The compound `Cc1ccc(Cl)c(Nc2ccccc2C(=O)O)c1Cl` [Meclofenamate (II), meclofenamic acid, reference compound] showed an inhibition constant (Ki) on 3α-HSD [1] of 1.1 µM.

In the case of `Cc1ccc(C(=O)c2ccc(CC(=O)O)n2C)cc1` [Tolmetin (IV), tolmetin, reference compound], the affinity on 3α-HSD [1], expressed as Ki, was 29 µM.

Take `O=C(CBr)Nc1ccc(Nc2ccccc2C(=O)O)cc1` [Compound (VII), N-(4-bromoacetamidophenyl) anthranilic acid]: the Ki at 3α-HSD [1] is 2.5 µM. In addition, at 3α-HSD [2], the “t1/2 life for the enzyme” value was 12.1 s; the “Return of activity of inactivated enzyme” value is on record as “cannot be returned by extensive dialysis”; the “Loss of 3α-HSD activity (inactivation)” value was “time and concentration dependent loss of 3α-HSD activity”; the KI (inactivation) was found to be 161 µM.
